# Measurements: ChEMBL document CHEMBL1122678, “Structural correlations of choline acetyltransferase inhibitors: trans-N-(carboxymethyl)-4-(beta-1-naphthylvinyl)pyridinium bromide and cis-N-(2-aminoethyl)-4-(beta-1-naphthylvinyl)-3-methylpyridinium bromide hydrobromide” (J Med Chem, 1984)
# Tests used:
# [1] = (§1) Inhibitory activity was determined; settings: read-out: I50
# [2] = as §1
IC50 [1],I23 [2],Compound
25 µM,–,C(=C\c1cccc2ccccc12)/c1ccncc1
50 µM,–,C(=C\c1cccc2ccccc12)/c1ccncc1 (stereo in doubt; cis) [listing 1 of 2 here]
–,400 µM,C(=C\c1cccc2ccccc12)/c1ccncc1 (stereo in doubt; cis) [listing 2 of 2 here]
5 µM,–,C(=C\c1cccc2ccccc12)/c1ccncc1 (stereo in doubt; trans)
